What was measured:
Experiment in all cases: relative viability (nuclei count vs DMSO), 5 days (fraction); higher = more cells survive
NCI-H596 = test system: NCI-H596
Procedure, shortened: (§1)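 Lung cancer cell lines were pin-tool dosed in 1536-well plates on the day after seeding, with either a lone drug or a fixed anchor-drug dose plus five library-drug doses (not always all listed) in √10 steps. Nuclei were counted on 4× images after 5 days. Relative viability is the ratio of treated-well to vehicle-well nuclei counts, with each value a median of duplicate plates.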

EKVX = test system: EKVX
Procedure, shortened: as §1

NCI-H1975 = test system: NCI-H1975
Procedure, shortened: as §1

NCI-H441 = test system: NCI-H441
Procedure, shortened: as §1

NCI-H1437 = test system: NCI-H1437
Procedure, shortened: as §1

NCI-H650 = test system: NCI-H650
Procedure, shortened: as §1

NCI-H23 = test system: NCI-H23
Procedure, shortened: as §1

201T = test system: 201T
Procedure, shortened: as §1

NCI-H1792 = test system: NCI-H1792
Procedure, shortened: as §1

HCC-827 = test system: HCC-827
Procedure, shortened: as §1

NCI-H1650 = test system: NCI-H1650
Procedure, shortened: as §1

HCC-44 = test system: HCC-44
Procedure, shortened: as §1

NCI-H838 = test system: NCI-H838
Procedure, shortened: as §1

HARA = test system: HARA
Procedure, shortened: as §1

BEN = test system: BEN
Procedure, shortened: as §1

COR-L23 = test system: COR-L23
Procedure, shortened: as §1

HCC-15 = test system: HCC-15
Procedure, shortened: as §1

A-427 = test system: A-427
Procedure, shortened: as §1

Compound: Cc1sc2c(c1C)C(c1ccc(Cl)cc1)=N[C@@H](CC(=O)OC(C)(C)C)c1nnc(C)n1-2 [JQ1] + CC(C)C[C@H](NC(=O)[C@H](Cc1ccccc1)NC(=O)c1cnccn1)B(O)O [Bortezomib] (partner 0.002 µM)
- relative viability (NCI-H596; first compound 0.04 µM): 0.945
- relative viability (NCI-H596; first compound 0.1265 µM): 0.781
- relative viability (NCI-H596; first compound 0.4 µM): 0.955
- relative viability (NCI-H596; first compound 1.265 µM): 0.673
- relative viability (NCI-H596; first compound 4 µM): 0.344
- relative viability (EKVX; first compound 0.04 µM): 0.981
- relative viability (EKVX; first compound 0.1265 µM): 0.842
- relative viability (EKVX; first compound 0.4 µM): 1.16
- relative viability (EKVX; first compound 1.265 µM): 0.749
- relative viability (EKVX; first compound 4 µM): 0.704
- relative viability (NCI-H1975; first compound 0.04 µM): 0.355
- relative viability (NCI-H1975; first compound 0.1265 µM): 0.258
- relative viability (NCI-H1975; first compound 0.4 µM): 0.317
- relative viability (NCI-H1975; first compound 1.265 µM): 0.177
- relative viability (NCI-H1975; first compound 4 µM): 0.152
- relative viability (NCI-H441; first compound 0.04 µM): 0.611
- relative viability (NCI-H441; first compound 0.1265 µM): 0.363
- relative viability (NCI-H441; first compound 0.4 µM): 0.443
- relative viability (NCI-H441; first compound 1.265 µM): 0.189
- relative viability (NCI-H441; first compound 4 µM): 0.174
- relative viability (NCI-H1437; first compound 0.04 µM): 0.42
- relative viability (NCI-H1437; first compound 0.1265 µM): 0.369
- relative viability (NCI-H1437; first compound 0.4 µM): 0.276
- relative viability (NCI-H1437; first compound 1.265 µM): 0.228
- relative viability (NCI-H1437; first compound 4 µM): 0.194
- relative viability (NCI-H650; first compound 0.04 µM): 0.742
- relative viability (NCI-H650; first compound 0.1265 µM): 0.351
- relative viability (NCI-H650; first compound 0.4 µM): 0.432
- relative viability (NCI-H650; first compound 1.265 µM): 0.183
- relative viability (NCI-H650; first compound 4 µM): 0.184
- relative viability (NCI-H23; first compound 0.04 µM): 1.07
- relative viability (NCI-H23; first compound 0.1265 µM): 0.86
- relative viability (NCI-H23; first compound 0.4 µM): 0.666
- relative viability (NCI-H23; first compound 1.265 µM): 0.241
- relative viability (NCI-H23; first compound 4 µM): 0.332
- relative viability (201T; first compound 0.04 µM): 1.14
- relative viability (201T; first compound 0.1265 µM): 0.643
- relative viability (201T; first compound 0.4 µM): 1.02
- relative viability (201T; first compound 1.265 µM): 0.859
- relative viability (201T; first compound 4 µM): 0.768
- relative viability (NCI-H1792; first compound 0.04 µM): 0.953
- relative viability (NCI-H1792; first compound 0.4 µM): 0.895
- relative viability (NCI-H1792; first compound 1.265 µM): 0.657
- relative viability (NCI-H1792; first compound 4 µM): 0.456
- relative viability (HCC-827; first compound 0.04 µM): 0.929
- relative viability (HCC-827; first compound 0.4 µM): 0.743
- relative viability (HCC-827; first compound 1.265 µM): 1.25
- relative viability (HCC-827; first compound 4 µM): 0.928
- relative viability (NCI-H1650; first compound 0.04 µM): 0.177
- relative viability (NCI-H1650; first compound 0.1265 µM): 0.191
- relative viability (NCI-H1650; first compound 0.4 µM): 0.187
- relative viability (NCI-H1650; first compound 1.265 µM): 0.175
- relative viability (NCI-H1650; first compound 4 µM): 0.208
- relative viability (HCC-44; first compound 0.04 µM): 0.941
- relative viability (HCC-44; first compound 0.1265 µM): 0.702
- relative viability (HCC-44; first compound 0.4 µM): 0.744
- relative viability (HCC-44; first compound 1.265 µM): 0.461
- relative viability (HCC-44; first compound 4 µM): 0.224
- relative viability (NCI-H838; first compound 0.04 µM): 0.69
- relative viability (NCI-H838; first compound 0.1265 µM): 0.426
- relative viability (NCI-H838; first compound 0.4 µM): 0.31
- relative viability (NCI-H838; first compound 1.265 µM): 0.208
- relative viability (NCI-H838; first compound 4 µM): 0.154
- relative viability (HARA; first compound 0.04 µM): 1.08
- relative viability (HARA; first compound 0.1265 µM): 0.725
- relative viability (HARA; first compound 0.4 µM): 0.611
- relative viability (HARA; first compound 1.265 µM): 0.433
- relative viability (HARA; first compound 4 µM): 0.173
- relative viability (BEN; first compound 0.04 µM): 0.627
- relative viability (BEN; first compound 0.1265 µM): 0.605
- relative viability (BEN; first compound 0.4 µM): 0.463
- relative viability (BEN; first compound 1.265 µM): 0.322
- relative viability (BEN; first compound 4 µM): 0.221
- relative viability (COR-L23; first compound 0.04 µM): 0.981
- relative viability (COR-L23; first compound 0.1265 µM): 0.673
- relative viability (COR-L23; first compound 0.4 µM): 0.792
- relative viability (COR-L23; first compound 1.265 µM): 0.579
- relative viability (COR-L23; first compound 4 µM): 0.17
- relative viability (HCC-15; first compound 0.04 µM): 0.958
- relative viability (HCC-15; first compound 0.4 µM): 0.98
- relative viability (HCC-15; first compound 1.265 µM): 0.705
- relative viability (HCC-15; first compound 4 µM): 0.628
- relative viability (A-427; first compound 0.04 µM): 0.969
- relative viability (A-427; first compound 0.1265 µM): 1.04
- relative viability (A-427; first compound 0.4 µM): 0.979
- relative viability (A-427; first compound 1.265 µM): 0.682
- relative viability (A-427; first compound 4 µM): 0.474
